Literature values as cited in US20010012851A1, “NITRIC OXIDE RELEASING OXINDOLE PRODRUGS FOR ANAGESIC, ANTI-INFLAMMATORY AND DISEASE-MODIFYING USE” (priority 1999, published 2001).

Columns and labels:
[1] = rat; for healing of experimental gastric ulcers (healing rate): daily treatment, Elliott et al. 1995
[2] = animal models of acute and chronic inflammation; versus parent NSAID
[3] = acute and chronic administration; versus parent NSAID
[4] = rat

For `O=C(Cc1ccccc1Nc1c(Cl)cccc1Cl)OCCCCO[N+](=O)[O-]` [diclofenac nitroxybutylester, diclofenac-4-nitroxybutylester], which “healing of experimental gastric ulcers (healing rate)” value (“healing … (healing rate)” for short) [1] is on record?
Its value is “accelerated”.

What about the anti-inflammatory activity [2] of the same compound?
Its anti-inflammatory activity is “comparable to that of their parent NSAIDs”.

And the gastric injury [3]?
The gastric injury was “markedly less gastric injury”.

Which “healing … (healing rate)” value [1] does the source give for `O=C(O)Cc1ccccc1Nc1c(Cl)cccc1Cl` [diclofenac] here?
Its value is “no effect”.

What does the source list for `CC(C(=O)OCCCCO[N+](=O)[O-])c1ccc(-c2ccccc2)c(F)c1` (stereo not shown) [flurbiprofen nitroxybutylester]?
anti-inflammatory activity [2]: comparable to that of their parent NSAIDs; mitochondrial damage ([4]; in vivo): associated with mitochondrial damage in vivo; macroscopic damage in the small intestine ([4]; versus flurbiprofen): significantly less macroscopic damage; gastric injury [3]: markedly less gastric injury

With `O=[N+]([O-])OCC(CO[N+](=O)[O-])O[N+](=O)[O-]` [glyceryl trinitrate] as the compound, how does the “healing … (healing rate)” value [1] read?
Its value is “accelerated”.

And the “healing of experimental gastric ulcers” value ([1]; earlier knowledge on the NO donor)?
Its value is “significantly accelerated”.

Which anti-inflammatory activity [2] does the source give for `CC(C(=O)OCCCCO[N+](=O)[O-])c1cccc(C(=O)c2ccccc2)c1` (stereo not shown) [ketoprofen nitroxybutylester] here?
The anti-inflammatory activity was “comparable to that of their parent NSAIDs”.

And the gastric injury [3]?
Its gastric injury is “markedly less gastric injury”.

For `COc1ccc2cc(CCC(C)=O)ccc2c1` [nabumetone], which “healing … (healing rate)” value [1] is on record?
Its value is “no effect”.
